Laboratory results taken from US7927785B2, “Methods for in vitro expansion of hematopoietic stem cells” (The Board of Trustees of the University of Illinois, priority 2002, dated 2011).

What was measured:
Type in all cases: cell-based
[1] = system: adult human bone marrow CD34+ cells; test: Colony-forming cell (CFC) assay in methylcellulose
Experimental: Colony-forming cells (CFC) were assayed under standard conditions in semisolid media as previously described (Brandt et al., Blood 94:106-113, 1999). Briefly 1×10^3 primary CD34^+ cells or unfractionated cultured cells exposed to different conditions used following 9 days of culture were plated in duplicate cultures containing 1 ml IMDM with 1.1% methylcellulose, 30% FBS, 5×10^−5 M 2-mercaptoethanol (Methocult, Stem Cell Technologies, Vancouver, BC, Canada), and a cocktail of growth factors including 100 ng/ml of SCF, 5 U/mL of EPO, 50 ng/mL of IL-3, 50 ng/mL of IL-6 and 50 ng/mL of G-CSF (Amgen Inc., Thousand Oaks, Calif.). The cells were plated into 35 mm tissue-culture dishes (Costar), and after 14 days of incubation at 37° C. in a 100%-humidified atmosphere containing 5% CO2, the colonies were scored with an inverted microscope following standard criteria (Breems et al., Leukemia, 8:1095-1104, 1994).

[2] = system: adult human bone marrow CD34+ cells; test: Colony-forming cell (CFC) assay in methylcellulose; settings: after 5 days
[3] = system: adult human bone marrow CD34+ cells; test: Phenotypic analysis (FACS) of marrow CD34+ cells after ex vivo culture
Experimental: (§1) To promote cell division of isolated CD34^+ cells, a stroma-free suspension culture was established as previously described (Bazil et al., 1995). Tissue culture dishes (35 mm; Costar, Corning, N.Y.) were seeded with 1×10^5 CD34^+cells/well in 2.5 mL Iscove modified Dulbecco medium (IMDM) (Biowhittaker, Walkersville, Md.) containing 30% FBS and a cocktail of cytokines specifically thought to promote exit from G0/G1 in primitive HSC populations which consisted of 100 ng/mL recombinant stem cell factor (SCF), 100 ng/mL FLT-3 ligand, 100 ng/mL thrombopoetin (TPO) and 50 ng/mL of interleukin (IL)-3, (all from Amgen Inc., Thousand Oaks, Calif.).
(§2) Cells were maintained in the media and incubated at 37° C. in a 100%-humidified atmosphere containing 5% CO2 for 48 hours. After intial 16 hours of incubation cells were exposed to the demethylating agent, 5-aza2′deoxycitidine (5azaD) (Sigma Chemicals, St. Louis, Mo.) at a concentration of 10^−6M. After 48 hours, cells were washed by centrifugation and then equally distributed to new tissue culture dishes in 2.5 mL IMDM supplemented with 30% FBS containing cytokines known to promote terminal differentiation of HSC into multiple hematopoietic lineages. The cocktail of cytokines contained 100 ng/mL of SCF, 50 ng/ml of granulocyte colony-stimulating factor (G-CSF), 50 ng/mL of IL-3, 50 ng/ml of IL-6 and 5 units (U)/mL of recombinant erythropoietin (EPO) (Amgen Inc., Thousand Oaks, Calif.). Cells at this time point were exposed to Trichostatin (TSA) (Sigma Chemical., St. Louis, Mo.) at 5 ng/mL and the culture was continued for an additional 7 days. At the end of the culture period cells were counted for viability by the trypan blue exclusion method using an inverted microscope. 5-fluorouracil (5-FU) (Sigma Chemical., St. Louis, Mo.) was used at a concentration of 200 μg/ml and added at the 16 hour time point instead of 5azaD and the cultures carried on as described above with no addition of TSA.
(§3) The phenotypic characteristics of the CD34^+ cells were analyzed using FACS. After 9 days of culture, expanded marrow CD34^+ cells were analyzed for primitive HSC phenotype, previously defined, by using flow activated-cell sorter (FACS) (Becton Dickinson (BD) FACS Calibur, San Jose, Calif.). Cells were stained with anti-human CD34^+ moAb conjugated either to fluorescein isothiocyanate (FITC) or phycoerythrin (PE) and another moAb including anti-CD38, anti-CD117, anti-CD90. To determine the lineage positive cells a panel of moab all conjugated to FITC (anti-CD2, anti-CD14, anti-CD15, anti-CD19 and anti-GlyA) (all antibodies were purchased from BD) were utilized. All anaylsis were paired with the corresponding matched isotype control of the specific moAb utilized. All staining and washes were performed in DPBS (Biowhittaker, Walkersville Md.) and 0.5% BSA (Sigma, Chemicals Co., St. Louis, Mo.). Immediately prior to FACS anaylsis, […] propidium iodide (PI) (Sigma, Chemicals Co., St. Louis, Mo.) was added for the exclusion of nonviable cells for phenotypic analysis. Using Cell-Quest software (BD), at least 10,000 live cells were acquired for each analysis.

[4] = system: adult human bone marrow CD34+ cells; test: Ex vivo expansion culture: cell counts and CD34+CD90+ cell numbers
Experimental: as §1, §2, §3

[5] = colonies/plate, cells after 9 days with cytokines, mean of 2 ± SEM
[6] = 9 days of culture, single agent, % of total cells
[7] = 9 days of culture, single agent
[8] = 9 days with cytokines, mean of 3 ± SEM

In the case of `O=c1[nH]cc(F)c(=O)[nH]1` [5-FU, 5-fluorouracil], the “assayable hematopoietic progenitor cells” value ([1]; 9 days with cytokines, compared with primary cells) is reported as “no assayable hematopoietic progenitor cells”, the “Total Number Colonies/plate” value ([1]; cells after 9 days with cytokines, mean of 2 ± SEM) is reported as 0 and the BFU-E [1, 5] is reported as 0. For the same compound, the CFU-GM [1, 5] was 0, the CFU-Mix [1, 5] was 0 and the “Plating Efficiencies” value ([1]; total number of hematopoietic colonies/total cells plated × 100) was 0. The “assayable hematopoetic progenitor cells” value [2] was “no assayable hematopoetic progenitor cells”, the “CD34+ CD90+ %” value [3, 6] was 1.2% and the “CD34+ CKit lo %” value [3, 6] was 4%. The “CD34+ Lin− %” value [3, 6] was 27%, the “CD34+CD38− %” value [3, 6] was 27% and the “Total CD34+ %” value [3, 6] was 27%. For the same compound, the “% of CD34+ cells that were CD90+” value ([3]; day 9) was 10%, the “% of cells that were CD34+” value ([3]; day 9) was 20% and the “% CD34+ of all cells” value [4, 7] was 26%. For the same compound, the “% CD34+ thy-1+ cells” value [4, 7] was 1%, the “Absolute CD34+ thy-1+ cells ×10^5” value [4, 7] was 0.0002 ×10^5 and the “Absolute CD34 counts ×10^5” value [4, 7] was 0.0065 ×10^5. The “Fold changes from the original cells” value ([4]; 9 days of culture, single agent, CD34+CD90+ cells) was 0.001 fold, the “Total counts ×10^5” value ([4]; 9 days of culture, single agent, start 1×10^5 CD34+ cells/well) was 0.025 ×10^5 and the “Absolute CD34+ Number (×10^4)” value [4, 8] was 0.1 ± 0.0 ×10^4. For the same compound, the “Absolute CD34+CD90+ Numbers (×10^4)” value [4, 8] was 0.0 ×10^4, the “Total Mononuclear Cell Number (×10^4)” value [4, 8] was 0.3 ± 0.0 ×10^4 and the “CD34+CD90+ cells observed” value ([4]; by day 9) was “no CD34^+CD90^+ cells were observed”. For the same compound, the “Fold Expansion of CD34+CD90+” value ([4]; compared to the primary cell numbers, mean of 3 ± SEM) was 0.0 fold and the “absolute number of CD34+CD90+ cells in the culture” value ([4]; day 9, from 22,000 at start) was 700.
